Measurements from patent publication US11370798B2 (Vertex Pharmaceuticals Incorporated, priority 2012, dated 2022).

Tested on: HCT116 colorectal cancer cells
Test: Cisplatin sensitization assay (96 h cell viability MTS);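 further: Test-compound concentration that lowers the Cisplatin IC50 by a set fold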
Assay type: cell-based
Conditions: compound and Cisplatin added simultaneously, Cisplatin sensitization value
Summary of the method: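 Compound and cisplatin added together as a full matrix of 2-fold serial dilutions from a top final concentration of 10 μM; cells incubated 96 h at 37° C, 5% CO2. Viability then read by MTS after 1 h further incubation; sensitization value reported in μM bins.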

SMILES	Cisplatin Sensitization Assay
N#CCc1cnc2c(C(=O)Nc3cnccc3O[C@H]3CCNC3)c(N)nn2c1 [I-O-86, (S)-2-amino-6-(cyanomethyl)-N-(4-(pyrrolidin-3-yloxy)pyridin-3-yl)pyrazolo[1,5-a]pyrimidine-3-carboxamide]	++ (Cisplatin sensitization value>0.02 μM but <0.2 μM)
Cc1ncn(-c2ccncc2NC(=O)c2c(N)nn3cc(F)cnc23)c1C [I-N-269, 2-amino-N-(4-(4,5-dimethyl-1H-imidazol-1-yl)pyridin-3-yl)-6-fluoropyrazolo[1,5-a]pyrimidine-3-carboxamide]	++ (Cisplatin sensitization value>0.02 μM but <0.2 μM)
CC(C)(C#N)c1cnc2c(C(=O)Nc3cnccc3N3CCN(C4COC4)CC3)c(N)nn2c1 [I-N-142, 2-amino-6-(2-cyanopropan-2-yl)-N-(4-(4-(oxetan-3-yl)piperazin-1-yl)pyridin-3-yl)pyrazolo[1,5-a]pyrimidine-3-carboxamide]	++ (Cisplatin sensitization value>0.02 μM but <0.2 μM)
CN1CCOCC1C(=O)N1CCN(c2c(F)cncc2NC(=O)c2c(N)nn3cc(F)cnc23)CC1 (stereo not shown) [I-N-227, 2-amino-6-fluoro-N-(5-fluoro-4-(4-(4-methylmorpholine-3-carbonyl)piperazin-1-yl)pyridin-3-yl)pyrazolo[1,5-a]pyrimidine-3-carboxamide]	+++ (Cisplatin sensitization value of <0.02 μM)
CS(=O)(=O)N1CCN(c2ccncc2NC(=O)c2c(N)nn3cc(F)cnc23)CC1 [I-N-178, 2-amino-6-fluoro-N-(4-(4-(methylsulfonyl)piperazin-1-yl)pyridin-3-yl)pyrazolo[1,5-a]pyrimidine-3-carboxamide]	+++ (Cisplatin sensitization value of <0.02 μM)
N#CCc1cnc2c(C(=O)Nc3cnccc3N3CCCCC3)c(N)nn2c1 [I-N-84, 2-amino-6-(cyanomethyl)-N-(4-(piperidin-1-yl)pyridin-3-yl)pyrazolo[1,5-a]pyrimidine-3-carboxamide]	+++ (Cisplatin sensitization value of <0.02 μM)
N#CCc1cnc2c(C(=O)Nc3cnccc3OC3CCCOC3)c(N)nn2c1 (stereo not shown) [I-O-41, 2-amino-6-(cyanomethyl)-N-(4-((tetrahydro-2H-pyran-3-yl)oxy)pyridin-3-yl)pyrazolo[1,5-a]pyrimidine-3-carboxamide]	+++ (Cisplatin sensitization value of <0.02 μM)
Nc1nn2cc(Cl)cnc2c1C(=O)Nc1cnccc1O[C@H]1C[C@]2(CCN2)C1 [I-O-78, N-(4-((4s,6r)-1-azaspiro[3.3]heptan-6-yloxy)pyridin-3-yl)-2-amino-6-chloropyrazolo[1,5-a]pyrimidine-3-carboxamide]	+ (Cisplatin sensitization value>0.2 μM but <5 μM)
CN1CCCN(C(=O)C2CCN(c3c(F)cncc3NC(=O)c3c(N)nn4cc(F)cnc34)CC2)CC1 [I-G-6, 2-amino-6-fluoro-N-(5-fluoro-4-(4-(4-methyl-1,4-diazepane-1-carbonyl)piperidin-1-yl)pyridin-3-yl)pyrazolo[1,5-a]pyrimidine-3-carboxamide]	+++ (Cisplatin sensitization value of <0.02 μM)
C[C@@H]1CN(C(=O)C2CCN(c3c(F)cncc3NC(=O)c3c(N)nn4cc(F)cnc34)CC2)CCN1 [I-G-45, (R)-2-amino-6-fluoro-N-(5-fluoro-4-(4-(3-methylpiperazine-1-carbonyl)piperidin-1-yl)pyridin-3-yl)pyrazolo[1,5-a]pyrimidine-3-carboxamide]	+++ (Cisplatin sensitization value of <0.02 μM)
Cc1nnc(C2CCN(c3ccncc3NC(=O)c3c(N)nn4cc(F)cnc34)CC2)o1 [I-N-265, 2-amino-6-fluoro-N-(4-(4-(5-methyl-1,3,4-oxadiazol-2-yl)piperidin-1-yl)pyridin-3-yl)pyrazolo[1,5-a]pyrimidine-3-carboxamide]	++ (Cisplatin sensitization value>0.02 μM but <0.2 μM)
N#CCc1cnc2c(C(=O)Nc3cnccc3N3CCC(O)CC3)c(N)nn2c1 [I-N-83, 2-amino-6-(cyanomethyl)-N-(4-(4-hydroxypiperidin-1-yl)pyridin-3-yl)pyrazolo[1,5-a]pyrimidine-3-carboxamide]	++ (Cisplatin sensitization value>0.02 μM but <0.2 μM)
CN1CC(N2CCN(C(=O)C3CCN(c4c(F)cncc4NC(=O)c4c(N)nn5cc(F)cnc45)CC3)CC2)C1 [I-G-96, 2-amino-6-fluoro-N-(5-fluoro-4-(4-(4-(1-methylazetidin-3-yl)piperazine-1-carbonyl)piperidin-1-yl)pyridin-3-yl)pyrazolo[1,5-a]pyrimidine-3-carboxamide]	+++ (Cisplatin sensitization value of <0.02 μM)
Nc1nn2cc(F)cnc2c1C(=O)Nc1cnccc1N1CCN(C2CCOC2)CC1 (racemic) [I-N-19, (R,S)-2-amino-6-fluoro-N-(4-(4-(tetrahydrofuran-3-yl)piperazin-1-yl)pyridin-3-yl)pyrazolo[1,5-a]pyrimidine-3-carboxamide]	+++ (Cisplatin sensitization value of <0.02 μM)
CS(=O)(=O)C1CN(C(=O)C2CCN(c3c(F)cncc3NC(=O)c3c(N)nn4cc(F)cnc34)CC2)C1 [I-G-86, 2-amino-6-fluoro-N-(5-fluoro-4-(4-(3-(methylsulfonyl)azetidine-1-carbonyl)piperidin-1-yl)pyridin-3-yl)pyrazolo[1,5-a]pyrimidine-3-carboxamide]	+++ (Cisplatin sensitization value of <0.02 μM)
Nc1nn2cc(F)cnc2c1C(=O)Nc1cnccc1N1CCC(C(=O)N2CCC3(COC3)C2)CC1 [I-G-84, N-(4-(4-(2-oxa-6-azaspiro[3.4]octane-6-carbonyl)piperidin-1-yl)pyridin-3-yl)-2-amino-6-fluoropyrazolo[1,5-a]pyrimidine-3-carboxamide]	+++ (Cisplatin sensitization value of <0.02 μM)
Cc1ccncc1-c1ccncc1NC(=O)c1c(N)nn2cc(F)cnc12 [I-C-30, 2-amino-6-fluoro-N-(4-methyl-[3,4′-bipyridin]-3′-yl)pyrazolo[1,5-a]pyrimidine-3-carboxamide]	+++ (Cisplatin sensitization value of <0.02 μM)
CN1CCN(C2CCN(c3ccncc3NC(=O)c3c(N)nn4cc(Cl)cnc34)CC2)CC1 [I-N-97, 2-amino-6-chloro-N-(4-(4-(4-methylpiperazin-1-yl)piperidin-1-yl)pyridin-3-yl)pyrazolo[1,5-a]pyrimidine-3-carboxamide]	+++ (Cisplatin sensitization value of <0.02 μM)
Nc1nn2cc(Cl)cnc2c1C(=O)Nc1cnccc1OC1CCCNC1 (stereo not shown) [I-O-75, 2-amino-6-chloro-N-(4-(piperidin-3-yloxy)pyridin-3-yl)pyrazolo[1,5-a]pyrimidine-3-carboxamide]	++ (Cisplatin sensitization value>0.02 μM but <0.2 μM)
Cn1cc(-c2ccncc2NC(=O)c2c(N)nn3cc(F)cnc23)ccc1=O [I-C-59, 2-amino-6-fluoro-N-(1-methyl-6-oxo-1,6-dihydro-[3,4′-bipyridin]-3′-yl)pyrazolo[1,5-a]pyrimidine-3-carboxamide]	++ (Cisplatin sensitization value>0.02 μM but <0.2 μM)
CN(C)C(=O)C1CCN(c2c(F)cncc2NC(=O)c2c(N)nn3cc(F)cnc23)CC1 [I-G-29, 2-amino-N-(4-(4-(dimethylcarbamoyl)piperidin-1-yl)-5-fluoropyridin-3-yl)-6-fluoropyrazolo[1,5-a]pyrimidine-3-carboxamide]	+++ (Cisplatin sensitization value of <0.02 μM)
CN1CCOC[C@@H]1c1ccc(-c2ccncc2NC(=O)c2c(N)nn3cc(F)cnc23)cc1 [I-C-66, (S)-2-amino-6-fluoro-N-(4-(4-(4-methylmorpholin-3-yl)phenyl)pyridin-3-yl)pyrazolo[1,5-a]pyrimidine-3-carboxamide]	+++ (Cisplatin sensitization value of <0.02 μM)
C[C@H]1CN(C2COC2)CCN1c1ccncc1NC(=O)c1c(N)nn2cc(F)cnc12 [I-N-24, (S)-2-amino-6-fluoro-N-(4-(2-methyl-4-(oxetan-3-yl)piperazin-1-yl)pyridin-3-yl)pyrazolo[1,5-a]pyrimidine-3-carboxamide]	+++ (Cisplatin sensitization value of <0.02 μM)
CN1CCN(c2c(Cl)cncc2NC(=O)c2c(N)nn3cc(Cl)cnc23)CC1 [I-N-41, 2-amino-6-chloro-N-(5-chloro-4-(4-methylpiperazin-1-yl)pyridin-3-yl)pyrazolo[1,5-a]pyrimidine-3-carboxamide]	+++ (Cisplatin sensitization value of <0.02 μM)
Nc1nn2cc(F)cnc2c1C(=O)Nc1cncc(F)c1N1CC(=O)N2CCCC2C1 (stereo not shown) [I-N-232, 2-amino-6-fluoro-N-(5-fluoro-4-(4-oxohexahydropyrrolo[1,2-a]pyrazin-2(1H)-yl)pyridin-3-yl)pyrazolo[1,5-a]pyrimidine-3-carboxamide]	++ (Cisplatin sensitization value>0.02 μM but <0.2 μM)
CN1CC[C@@H](Oc2ccncc2NC(=O)c2c(N)nn3cc(Cl)cnc23)C1 [I-O-63, (R)-2-amino-6-chloro-N-(4-((1-methylpyrrolidin-3-yl)oxy)pyridin-3-yl)pyrazolo[1,5-a]pyrimidine-3-carboxamide]	++ (Cisplatin sensitization value>0.02 μM but <0.2 μM)
C[C@@H]1CN(C(=O)C2CCN(c3c(F)cncc3NC(=O)c3c(N)nn4cc(F)cnc34)CC2)CCN1C [I-G-50, (R)-2-amino-N-(4-(4-(3,4-dimethylpiperazine-1-carbonyl)piperidin-1-yl)-5-fluoropyridin-3-yl)-6-fluoropyrazolo[1,5-a]pyrimidine-3-carboxamide]	+++ (Cisplatin sensitization value of <0.02 μM)
Nc1nn2cc(F)cnc2c1C(=O)Nc1cncc(F)c1N1CCN(S(=O)(=O)C2CCOCC2)CC1 [I-N-158, 2-amino-6-fluoro-N-(5-fluoro-4-(4-((tetrahydro-2H-pyran-4-yl)sulfonyl)piperazin-1-yl)pyridin-3-yl)pyrazolo[1,5-a]pyrimidine-3-carboxamide]	+++ (Cisplatin sensitization value of <0.02 μM)
